From patent US10836732B2, “Compounds for combating arthropods” (priority 2013, dated 2020)

Experiments:
Boophilus microplus = Boophilus microplus - injection test; type: in vivo; details: 20 μg/animal, injected into engorged adult female cattle ticks, after 7 days
Procedure: (§1) Solvent: dimethyl sulphoxide
To produce an appropriate active ingredient formulation, 10 mg of active ingredient are mixed with 0.5 ml of solvent and the concentrate is diluted with solvent to the desired concentration.
1 μl of the active ingredient solution is injected into the abdomen of 5 engorged adult female cattle ticks (Boophilus microplus). The animals are transferred into dishes and kept in a climate-controlled room.
(§2) Efficacy is assessed after 7 days by laying of fertile eggs. Eggs which are not visibly fertile are stored in a climate-controlled cabinet until the larvae hatch after about 42 days. An efficacy of 100% means that none of the ticks has laid any fertile eggs; 0% means that all the eggs are fertile.

Musca domestica = Musca domestica - test; type: in vivo; details: 100 ppm, adult houseflies, after 2 days
Procedure: as §1
(§3) To produce an appropriate active ingredient formulation, 10 mg of active ingredient are mixed with 0.5 ml of dimethyl sulphoxide, and the concentrate is diluted with water to the desired concentration.
Vessels containing a sponge treated with sugar solution and the active ingredient formulation of the desired concentration are populated with 10 adult houseflies (Musca domestica).
After 2 days, the kill in % is determined 100% means that all of the flies have been killed; 0% means that none of the flies have been killed.

Phaedon cochleariae = Phaedon cochleariae - spray test; type: in vivo; details: Chinese cabbage leaf discs, after 7 days
Procedure: (§4) Solvent: 78.0 parts by weight of acetone
(§5) • 1.5 parts by weight of dimethylformamide Emulsifier: alkylaryl polyglycol ether
(§6) To produce an appropriate active ingredient formulation, 1 part by weight of active ingredient is dissolved using the specified parts by weight of solvent and made up with water containing an emulsifier concentration of 1000 ppm until the desired concentration is attained. To produce further test concentrations, the preparation is diluted with emulsifier-containing water.
Discs of Chinese cabbage leaves (Brassica pekinensis) are sprayed with an active ingredient formulation of the desired concentration and, after drying, populated with larvae of the mustard beetle (Phaedon cochleariae).
After 7 days, efficacy in % is determined 100% means that all the beetle larvae have been killed; 0% means that no beetle larvae have been killed.

Lucilia cuprina = Lucilia cuprina - test; type: in vivo; details: 100 ppm, L1 larvae, after 2 days
Procedure: as §1, §3
About 20 L1 larvae of the Australian sheep blowfly (Lucilia cuprina) are transferred into a test vessel containing minced horsemeat and the active ingredient preparation of the desired concentration.
After 2 days, the kill in % is determined 100% means that all the larvae have been killed; 0% means that none of the larvae have been killed.

[1] = logP by HPLC on reversed-phase column (C18), EEC Directive 79/831 Annex V.A8; type: physicochemical
Spodoptera frugiperda = Spodoptera frugiperda - spray test; type: in vivo; details: maize leaf discs, after 7 days
Procedure: as §4, §5, §6
Leaf discs of maize (Zea mays) are sprayed with an active ingredient formulation of the desired concentration and, after drying, populated with caterpillars of the armyworm (Spodoptera frugiperda).
After 7 days, efficacy in % is determined. 100% means that all the caterpillars have been killed; 0% means that no caterpillars have been killed.

Ctenocephalides felis [2] = assay: Ctenocephalides felis - oral test; type: in vivo; details: 100 ppm in citrated cattle blood, adult cat fleas, after 2 days
Procedure: as §1
For the purpose of producing an appropriate active ingredient formulation, 10 mg of active ingredient are mixed with 0.5 ml of dimethyl sulphoxide. Dilution with citrated cattle blood gives the desired concentration.
About 20 unfed adult cat fleas (Ctenocephalides felis) are placed into a chamber which is closed at the top and bottom with gauze. A metal cylinder whose bottom end is closed with parafilm is placed onto the chamber. The cylinder contains the blood/active ingredient preparation, which can be imbibed by the fleas through the parafilm membrane.
After 2 days, the kill in % is determined 100% means that all of the fleas have been killed; 0% means that none of the fleas have been killed.

Tetranychus urticae = Tetranychus urticae - spray test, OP-resistant; type: in vivo; details: bean leaf discs, after 6 days
Procedure: as §4, §5, §6
Discs of bean leaves (Phaseolus vulgaris) infested by all stages of the greenhouse red spider mite (Tetranychus urticae) are sprayed with an active ingredient formulation of the desired concentration.
After 6 days, efficacy in % is determined 100% means that all the spider mites have been killed; 0% means that none of the spider mites have been killed.

Myzus persicae = Myzus persicae - spray test; type: in vivo; details: 500 g/ha, Chinese cabbage leaf discs, after 6 days
Procedure: Solvent: 78 parts by weight of acetone
as §5, §6
Discs of Chinese cabbage leaves (Brassica pekinensis) infested by all stages of the green peach aphid (Myzus persicae) are sprayed with an active ingredient formulation of the desired concentration.
After 6 days, efficacy in % is determined. 100% means that all the aphids have been killed; 0% means that none of the aphids have been killed.

[3] = test system: Boophilus microplus Parkhurst strain, SP-resistant; assay: Boophilus microplus - dip test; type: in vivo; details: 100 ppm, adult engorged female cattle ticks, after 7 days
Procedure: Test animals: cattle ticks (Boophilus microplus) Parkhurst strain, SP-resistant
as §1
10 mg of active ingredient are dissolved in 0.5 ml of dimethyl sulphoxide. For the purpose of producing a suitable formulation, the active ingredient solution is diluted with water to the concentration desired in each case.
This active ingredient formulation is pipetted into tubes. 8-10 adult engorged female cattle ticks (Boophilus microplus) are transferred into a further tube with holes. The tube is immersed into the active ingredient formulation, and all the ticks are completely wetted. After the liquid has run out, the ticks are transferred on filter discs into plastic dishes and stored in a climate-controlled room.
as §2

Amblyomma hebraeum = assay: Amblyomma hebaraeum - test (tick nymphs, immersion); type: in vivo; details: 100 ppm, tick nymphs immersed one minute, after 42 days
Procedure: as §1, §3
Tick nymphs (Amblyomma hebraeum) are placed into perforated plastic beakers and immersed in the desired concentration for one minute. The ticks are transferred on filter paper into a Petri dish and stored in a climate-controlled cabinet.
After 42 days, the kill in % is determined 100% means that all of the ticks have been killed; 0% means that none of the ticks have been killed.

Rhipicephalus sanguineus = Rhipicephalus sanguineus - in vitro contact tests with adult brown dog ticks; type: in vivo; details: 5 μg/cm^2, adult dog ticks, after 48 h
Procedure: (§7) For the coating of the test tubes, 9 mg of active ingredient are first dissolved in 1 ml of acetone p.a. and then diluted to the desired concentration with acetone p.a. 250 μl of the solution are distributed homogeneously on the inner walls and base of a 25 ml test tube by turning and rocking on an orbital shaker (rocking rotation at 30 rpm for 2 h). With 900 ppm active ingredient solution and internal surface 44.7 cm^2, given homogeneous distribution, an area-based dose of 5 μg/cm^2 is achieved.
After the solvent has evaporated off, the tubes are populated with 5-10 adult dog ticks (Rhipicephalus sanguineus), sealed with a perforated plastic lid and incubated in a horizontal position in the dark at room temperature and ambient humidity. After 48 h, efficacy is determined To this end, the ticks are knocked to the floor of the tube and incubated on a hotplate at 45-50° C. for not more than 5 min Ticks which remain motionless on the floor or move in such an uncoordinated manner that they are unable to deliberately avoid the heat by climbing upwards are considered to be dead or moribund.
An efficacy of 100% means that all the ticks were dead or moribund. 0% efficacy means that none of the ticks had been harmed.

[4] = test system: Anopheles funestus strain FUMOZ-R; assay: Anopheles test (ANPHFU surface treatment); type: in vivo; details: 20 mg/m^2, glazed tile, exposure 30 minutes, 24 hours after contact
Procedure: Solvent: acetone+2000 ppm rapeseed oil methyl ester (RME)
To produce an appropriate active ingredient formulation, the active ingredient is dissolved in the solvent (2 mg/ml). The active ingredient formulation is pipetted onto a glazed tile and, after it has dried off, adult mosquitoes of the species Anopheles funestus strain FUMOZ-R (Hunt et al., Med Vet Entomol. 2005 September; 19(3):271-5) are placed onto the treated tile. The exposure time is 30 minutes.
24 hours after contact with the treated surface, mortality in % is determined 100% means that all mosquitoes have been killed; 0% means that none of the mosquitoes have been killed.

Ctenocephalides felis [5] = assay: Ctenocephalides felis - in vitro contact tests with adult cat fleas; type: in vivo; details: 5 μg/cm^2, adult cat fleas, after 48 h
Procedure: as §7, with “surface area” for “surface”
After the solvent has evaporated off, the tubes are populated with 5-10 adult cat fleas (Ctenocephalides felis), sealed with a perforated plastic lid and incubated in a horizontal position at room temperature and ambient humidity. After 48 h, efficacy is determined. To this end, the test tubes are stood upright and the fleas are knocked to the base of the tube. Fleas which remain motionless at the base or move in an uncoordinated manner are considered to be dead or moribund.
100% efficacy means that all the fleas were dead or moribund. 0% efficacy means that no fleas were harmed.

Cc1cc(C(F)(C(F)(F)F)C(F)(F)F)cc(C)c1-c1cn(-c2ccc(Cl)c(C(=O)NCC(F)(F)F)c2)nn1 [I-T48-5]
efficacy (no fertile eggs laid) (Boophilus microplus): 100% | efficacy (kill in %) (Musca domestica): 100% | efficacy (beetle larvae killed) (Phaedon cochleariae; 100 g/ha): 100% | efficacy (kill in %) (Lucilia cuprina): 100% | logP [1]: 4.5 | efficacy (caterpillars killed) (Spodoptera frugiperda; 100 g/ha): 100% | efficacy (kill in %) (Ctenocephalides felis [2]): 100%

Cc1cc(C(F)(C(F)(F)F)C(F)(F)F)cc(C)c1-c1cn(-c2cnc(Cl)c(C(=O)NC3(C#N)CC3)c2)nn1 [I-T48-8]
efficacy (spider mites killed) (Tetranychus urticae; 500 g/ha): 100% | efficacy (aphids killed) (Myzus persicae): 100% | efficacy (no fertile eggs laid) [3]: 100% | efficacy (no fertile eggs laid) (Boophilus microplus): 100% | efficacy (kill in %) (Amblyomma hebraeum): 100% | efficacy (beetle larvae killed) (Phaedon cochleariae; 500 g/ha): 100% | efficacy (caterpillars killed) (Spodoptera frugiperda; 500 g/ha): 100% | efficacy (kill in %) (Ctenocephalides felis [2]): 100%

Cc1cc(C(F)(C(F)(F)F)C(F)(F)F)cc(C)c1-c1cn(-c2ccc(Cl)c(C(=O)NC3CSC3)c2)nn1 [I-T48-6]
efficacy (spider mites killed) (Tetranychus urticae; 100 g/ha): 100% | efficacy (no fertile eggs laid) (Boophilus microplus): 100% | efficacy (kill in %) (Musca domestica): 100% | efficacy (beetle larvae killed) (Phaedon cochleariae; 100 g/ha): 100% | efficacy (kill in %) (Lucilia cuprina): 100% | logP [1]: 4.5 | efficacy (caterpillars killed) (Spodoptera frugiperda; 100 g/ha): 100% | efficacy (kill in %) (Ctenocephalides felis [2]): 100%

Cc1cc(C(F)(C(F)(F)F)C(F)(F)F)cc(C)c1-c1cn(-c2cnc(Cl)c(C(=O)NC3CC3)c2)nn1 [I-T48-7]
efficacy (spider mites killed) (Tetranychus urticae; 500 g/ha): 100% | efficacy (dead or moribund) (Rhipicephalus sanguineus): 100% | efficacy (aphids killed) (Myzus persicae): 100% | efficacy (no fertile eggs laid) [3]: 100% | efficacy (no fertile eggs laid) (Boophilus microplus): 100% | efficacy (kill in %) (Amblyomma hebraeum): 100% | efficacy (kill in %) (Musca domestica): 100% | efficacy (beetle larvae killed) (Phaedon cochleariae; 500 g/ha): 100% | efficacy (kill in %) (Lucilia cuprina): 100% | efficacy (caterpillars killed) (Spodoptera frugiperda; 500 g/ha): 100% | efficacy (kill in %) (Ctenocephalides felis [2]): 100%

N#CC1(NC(=O)c2cc(-n3cc(-c4c(Cl)cc(C(F)(C(F)(F)F)C(F)(F)F)cc4Cl)nn3)ccc2Cl)CC1 [I-T48-4]
efficacy (spider mites killed) (Tetranychus urticae; 100 g/ha): 100% | efficacy (dead or moribund) (Rhipicephalus sanguineus): 100% | efficacy (mortality in %) [4]: 90-100% | efficacy (no fertile eggs laid) (Boophilus microplus): 100% | efficacy (kill in %) (Musca domestica): 100% | efficacy (beetle larvae killed) (Phaedon cochleariae; 100 g/ha): 100% | efficacy (kill in %) (Lucilia cuprina): 100% | logP [1]: 4.2 | efficacy (dead or moribund) (Ctenocephalides felis [5]): 100% | efficacy (caterpillars killed) (Spodoptera frugiperda; 100 g/ha): 100% | efficacy (kill in %) (Ctenocephalides felis [2]): 100%

O=C(NC1CC1)c1cc(-n2cc(-c3c(Cl)cc(C(F)(C(F)(F)F)C(F)(F)F)cc3Cl)nn2)ccc1Cl [I-T48-3]
efficacy (spider mites killed) (Tetranychus urticae; 100 g/ha): 100% | efficacy (dead or moribund) (Rhipicephalus sanguineus): 100% | efficacy (no fertile eggs laid) [3]: 90% | efficacy (no fertile eggs laid) (Boophilus microplus): 100% | efficacy (kill in %) (Amblyomma hebraeum): 90% | efficacy (kill in %) (Musca domestica): 100% | efficacy (beetle larvae killed) (Phaedon cochleariae; 100 g/ha): 100% | efficacy (kill in %) (Lucilia cuprina): 100% | logP [1]: 4.3 | efficacy (dead or moribund) (Ctenocephalides felis [5]): 100% | efficacy (caterpillars killed) (Spodoptera frugiperda; 100 g/ha): 100% | efficacy (kill in %) (Ctenocephalides felis [2]): 100%
